This is an account of results in a melting point compilation (Tetko et al.; mined from patent text by program, amines drawn as free bases though some values may be those of a salt).

One may read the melting point as the temperature, or range, at which the solid turns liquid. Turning to `COC(=O)c1nc2n(n1)-c1cc(Cl)ccc1N(c1ccc(Cl)cc1Cl)C2`, the melting point was 264 to 266 °C.

On to `COC(=O)c1ccccc1-c1ccc(C(=C2CC(C)(C)CC(C)(C)C2)c2ccc(O)cc2)cc1`, for which the melting point lay within 177 to 178 °C. Take `CCCCOc1nccc2c1C(c1ccccc1C(F)(F)F)C(C(=O)OCC)=C(C)N2` (stereo unspecified): the melting point was 174 to 175 °C.

`CCOC(=O)C(Cl)=Cc1cc(Cl)ccc1-n1c(=O)c(Cl)c(C(F)(F)F)n(C)c1=O` showed a melting point of 160 to 164 °C.

With `CCCNCC(O)COc1ccccc1CCCc1cccc2[nH]ccc12` (stereo unspecified), the melting point was in the range of 99 to 100 °C. For `CSc1nc(C)ccc1NC(=O)CCCCCBr`, the melting point lay in the range of 98 to 99 °C. On to `COC1=C(C)C(C)(F)C(C(=O)c2ccccc2)C=C1` (stereo unspecified), for which the melting point was in the range of 59 to 61 °C. The compound `CC(=O)Oc1cc(C)cc(C(=O)N[C@@H](Cc2ccccc2)[C@H](O)C(=O)O)c1C` came in with a melting point of 220 to 224 °C. With `CC1=NC(=NOC(=O)NC(C)C)SC1(C)C`, the melting point is 114 to 116 °C. In the case of `CP(C)(=O)CNc1cc(Oc2ccc(C(F)(F)F)cc2Cl)ccc1[N+](=O)[O-]`, the melting point fell in the range of 166 to 168 °C. Then `O=C(Cc1c(-c2ccccc2)c2cc(CN3CCN(c4ccccc4)CC3)c(Cl)cc2oc1=O)Nc1ccc(Cl)cc1C(F)(F)F`, with 201 to 203 °C; and `COC(=O)C[C@@H](N)c1ccc(NC(=O)Cc2ccc(NC(=O)Nc3ccccc3C)c(OC)c2)cc1`, with 189 to 191 °C; and `Cc1c(CC(=O)O)c2cc(OCc3csc(-c4ccccc4)n3)ccc2n1Cc1csc(-c2ccc(Cl)cc2)n1`, with 178 to 180 °C. Under `COC(=O)c1cc2ccc(C(=O)NC(CO)CO)cc2[nH]1` stands 205 to 207 °C; under `CC(C)[C@H](NC(=O)OCc1csc(N2CCOCC2)n1)C(=O)N[C@@H](Cc1ccccc1)[C@@H](O)C[C@H](Cc1ccccc1)NC(=O)OCc1cncs1`, 146 to 148 °C. The compound `O=C(O)CCCCCCCCCCCCCCCCCCCO` registered a melting point of 86 °C. In turn, `O=C(ON1C(=O)CCC1=O)c1cccnc1` came in with a melting point of 129 to 131 °C. With `Cc1c(N2CC(O)C2)c(F)cc2c(=O)c(C(=O)O)cn(C3CC3)c12`, the melting point lay in the range of 260 to 262 °C.

`Cc1ccc(Cc2cnc(NCCCN)[nH]c2=O)cn1` came in with a melting point of 162 to 164 °C. With `COC(=O)CCC(C#N)(CCC(=O)OC)c1cccc(Cl)c1`, the melting point was 78.5 to 80 °C. Consider `CC(C(=O)O)C1CCC(C)(CCC2(C)C(C)CCC3(C)C(C)(C)CCCC23O)OO1` (stereo unspecified), for which the melting point was 157 to 159 °C. Consider `O=C1CCCC(=O)C1c1ccccc1Cl`, for which the melting point was 148 to 149 °C.

`O=C(O)CN1C(=O)C(Cl)=C(Cl)C1=O` had a melting point of 191 to 192 °C. `Oc1ccnc2ccc(Cl)cc12` came in with a melting point of 274 to 275 °C. `CCCCN1C(=O)NC(Cc2ccc(C=O)cc2)C1=O` (stereo unspecified): the melting point is 160 °C. With `O=C(NCC(=O)N1c2ccccc2N(Cc2ccccc2)C(=O)[C@H]2CCC[C@H]21)c1ccc2c(c1)OCO2` (relative stereo), the melting point lay in the range of 174 to 176 °C. For the compound `CC(C)(C)C(O)c1ccc(C(=O)c2ccccc2)cc1` (stereo unspecified), the melting point lay in the range of 103 to 105 °C. Then `CCCCCCCCCCCCCCCCCC(=O)Oc1ccc([N+](=O)[O-])cc1OC(=O)CCCCCCCCCCCCCCCCC`, with 68 to 70 °C; and `O=C(N[C@H]1CC[C@H](N2CCN(c3ccccn3)CC2)CC1)c1ccccc1`, with 241 to 244 °C. Consider `CCOc1ncc(C(C)=O)cc1C(=O)Nc1c(C(N)=O)n[nH]c1CC`, for which the melting point lay within 217 to 219 °C. The compound `CC(=O)c1ccc2c(c1)oc(=O)n2CCCN1CCC(c2noc3cc(F)ccc23)CC1` gave a melting point of 152 to 154 °C. In the case of `Cc1cc(N(C)Cc2oc(-c3ccc(C(F)(F)F)cc3)nc2C)cc(C)c1OCC(=O)O`, the melting point fell in the range of 122 to 123 °C. Under `O=C(Nc1cc(-c2c(-c3ccc(Cl)cc3)nc3cccnn23)ccn1)c1ccccc1` stands 218 to 219 °C; under `CCCCCOc1cc(C(=O)O)cc([N+](=O)[O-])c1C(=O)c1ccccc1`, 163 to 165 °C.

Compound `Cc1ccc(C=O)n1Cc1ccc(Cl)cc1Cl` returned a melting point of 86 to 87 °C.

As to `OC(CN1CCC(C(O)c2ccccc2)CC1)c1ccc(F)cc1` (stereo unspecified), the melting point was in the range of 114 to 116 °C. In turn, `COc1ccc(-n2cc(/C=C(\C#N)C(=O)NS(=O)(=O)c3ccccc3)c(-c3ccc(Cl)c(F)c3)n2)cc1Cl` had a melting point of 263 to 264 °C. `CN(Cc1ccccc1)C(Cc1ccccc1)C(=O)O` (stereo unspecified): the melting point was 214 to 215 °C. Under `CCOCc1nc2c(N)nc3cc(-c4cccnc4)ccc3c2n1CCCCS(N)(=O)=O` stands 250 to 252 °C; under `CCC1(O)NC(=O)C=C1C` (stereo unspecified), 182 to 186 °C; under `CCc1nc([C@@H]2C[C@H]2c2nc3ccccc3n2C)cc(-n2nc(C)nc2C)n1` (relative stereo), 158 to 160 °C.

`CCN(CC)CCCNc1ncc2cc(-c3c(Br)cccc3Br)c(N)nc2n1` had a melting point of 226 to 230 °C. Then `CCC1(C)C(=O)N(C(C)C)CC(C)(C)N1OC(C)(C)C#N` (stereo unspecified), with 106 to 108 °C. Turning to `COc1cc(OC)cc(-c2ncn(-c3cc(OC)c(OC)c(OC)c3)c2-c2ccc(OC)c(F)c2)c1`, the melting point was in the range of 157 to 158 °C. Then `O=C(O)c1ccc2c(c1)C=Cc1ccc(C(=O)O)cc1S2(=O)=O`, with 375 °C; and `CCCOc1cccc(CO)c1I`, with 75 to 75.5 °C. The compound `O=c1ccn(CCO)c(C(O)c2ccccc2F)c1OCc1ccccc1` (stereo unspecified) gave a melting point of 164 to 166 °C. In the case of `O=c1[nH]c2c(I)c(Br)c(Br)c(I)c2[nH]c1=O`, the melting point was over 350 °C. `O=[N+]([O-])N=C(NCc1cnc(Cl)s1)NCc1cnc(Cl)s1` came in with a melting point of 217 to 218 °C. For `Cc1nc(=O)n(COc2ccccc2)c(C)c1Br`, the melting point was 120 °C. In the case of `COc1cc2c(cc1OC)C(C=Cc1ccc([N+](=O)[O-])cc1)=NN(C(C)=O)C(C)C2` (stereo unspecified), the melting point lay within 182 to 184 °C. `CC(C)(C)OC(=O)NNCc1ccc(Cl)cc1` showed a melting point of 77 to 82 °C.

`Nc1cccc(-c2ccc(C3CCN(Cc4ccc5c(c4)OCO5)CC3)cc2)n1` yielded a melting point of 150 to 165 °C. The compound `COC(=O)C1=C(C)NC(=O)N(C(=O)OC)C1c1cccc([N+](=O)[O-])c1` (stereo unspecified) had a melting point of 152 to 155 °C.

Turning to `CC(C)(C)c1cc(C=C2OC(NC(=N)N)=NC2=O)cc(C(C)(C)C)c1O`, the melting point came to 258 °C. In the case of `COc1ccc2nccc(CCC[C@@H]3CCN(CCCc4ccccc4F)C[C@@H]3C(=O)O)c2c1`, the melting point worked out at 194 °C. Under `N#CNC(=S)Nc1cccc([N+](=O)[O-])c1` stands over 210 °C. In turn, `CCCCc1nn(-c2ccc(C(F)(F)F)cn2)cc1CCCOc1nn(C)cc1CC(=O)O` registered a melting point of 125 to 126 °C.

With `Cc1cc(C2=NN=C(C=NNC(N)=O)Cc3cc4c(cc32)OCO4)ccc1[N+](=O)[O-]`, the melting point lay in the range of 260 to 264 °C.

For `Cc1c(-c2ccc3sc(=O)[nH]c3c2)nc2ncccn12`, the melting point was over 290 °C. For `COC(=O)C1(NC(=O)Cc2cc(-c3ccc(Cl)cc3)ccc2C)CCC(F)(F)CC1`, the melting point is 186 °C. Under `O=C(O)c1ccc(-c2ccc(S(=O)(=O)N3CCCC(CO)C3)cc2)[nH]c1=O` (stereo unspecified) stands 300 to 304 °C; under `COC(=O)CCSCC(=O)c1ccc2c(c1)CC(=O)N2`, 106 to 108 °C. `Cn1nc(CO)nc1NCCCOc1cccc(CN2CCCCC2)c1`: the melting point was in the range of 118 to 119 °C. Under `CC(C)NCc1nc(-c2ncn3c2CN(C)C(=O)c2ccccc2-3)no1` stands 142 to 144 °C; under `Cc1oc2cc(O)ccc2c(=O)c1C(=O)O`, 286 to 287 °C. With `Cc1cc(C)c2cccc(OCc3c(Cl)ccc(S(=O)(=O)N4CCC[C@H]4C(=O)NCCCN(C)C(=O)c4ccc(C=NN)cc4)c3Cl)c2n1`, the melting point stood at 158 °C. Regarding `COc1ccc(C(=O)Nc2cc([N+](=O)[O-])ccc2Br)cc1OC`, the melting point lay in the range of 183 to 184 °C. Regarding `CCC(C)c1cccc(C(C)CC)c1C(=O)O` (stereo unspecified), the melting point is 125 to 126 °C. Compound `CC(C)C(C(=O)O)N(Cc1cccnc1)S(=O)(=O)c1ccc(-c2ccc(NC(=O)c3cc4ccccc4o3)cc2)cc1` (stereo unspecified) displayed a melting point of 261 to 262 °C. Then `Cc1cc(=O)n(C2CCCCC2)c(=O)n1C`, with 135 to 137 °C; and `CC(C)n1nc(-c2sc(NC(=O)c3ccc(CN(C)C)cc3)nc2-c2ccccc2)ccc1=O`, with 246 to 248 °C; and `CC(C)(C)OC(=O)NC(Cc1ccccc1)C(O)CNCC(O)C(CCc1ccccc1)NC(=O)OCc1ccccc1` (stereo unspecified), with 150 to 151 °C. For `Cc1cc2c(cc1NC(=O)c1cccc(I)c1C(=O)NC(C)C)OC(F)(F)C2(O)C(F)(F)F` (stereo unspecified), the melting point was in the range of 144 to 146 °C. `COC(=S)C(C)Cc1ccc(OCc2nc3ccc(SC)cc3n2C)cc1` (stereo unspecified): the melting point was in the range of 97 to 100 °C.

Regarding `N#CSCOc1c(Cl)cc(Cl)c(Cl)c1Cl`, the melting point was in the range of 51 to 53 °C. As to `CCOCCOC(=O)C(=O)Nc1nc(-c2ccc(OCC)cc2)cs1`, the melting point is 139 to 140 °C. For the compound `O=C(O)C1(C(=O)O)CCC(c2c(-c3ccccc3)[nH]c3ccccc23)CC1`, the melting point fell in the range of 196 to 197 °C. `CCCCN1C(=O)[C@@H]2[C@H](C1=O)[C@H](c1ccc(C#N)cc1)N(C(C)=O)[C@H]2C` (racemic) registered a melting point of 140 to 141 °C. `O=C(CCN1CCCC1)Nc1ccc2nc3ccc(NC(=O)CCN4CCCC4)cc3c(Cl)c2c1` registered a melting point of over 320 °C. Turning to `OCC=C(c1ccc(I)cc1)c1ccc(I)cc1`, the melting point fell in the range of 83 to 85 °C. Take `CC(=O)c1nn(-c2c(Cl)cc(C(F)(F)F)cc2Cl)cc1SC(F)(F)F`: the melting point lay within 89 to 91 °C. With `COc1ccc(S(=O)(=O)Nc2ccc(OC)nc2Nc2ccccc2)cc1`, the melting point was in the range of 187 to 188 °C. `O=C(NC1CCCCC1)Oc1ccc(Oc2ccccc2)cc1` showed a melting point of 166 to 168 °C. In turn, `Cc1cc(C#N)c(=O)[nH]c1-c1ccccc1` yielded a melting point of 250 to 257 °C. Turning to `CCOc1ccc(C(C)=O)cc1C(=O)OC`, the melting point lay in the range of 50 to 55 °C.
